Measured values taken from PubChem BioAssay (NCI).
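1) Cells in 96-well plates. 2) Compound, 48 h, 5 concentrations. 3) Linear interpolation between surrounding doses. 4) Unreached endpoint = highest concentration. At the GI50, growth is halved. TGI: total growth inhibition.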

Assays:
Test in all cases: NCI-60 cell line screen, 48 h
[1] = tested on: CAKI-1 renal
[2] = tested on: DU-145 prostate
[3] = tested on: HOP-92 NSCLC
[4] = tested on: HT29 colon
[5] = tested on: MDA-MB-231 breast
[6] = tested on: SF-295 CNS
[7] = tested on: SK-MEL-5 melanoma
[8] = tested on: SK-OV-3 ovarian
[9] = tested on: SNB-75 CNS
[10] = tested on: UO-31 renal

Row | SMILES | GI50 [1] [µM] | TGI [1] [µM] | GI50 [2] [µM] | TGI [2] [µM] | GI50 [3] [µM] | TGI [3] [µM] | GI50 [4] [µM] | TGI [4] [µM] | GI50 [5] [µM] | TGI [5] [µM] | GI50 [6] [µM] | TGI [6] [µM] | GI50 [7] [µM] | TGI [7] [µM] | GI50 [8] [µM] | TGI [8] [µM] | GI50 [9] [µM] | TGI [9] [µM] | GI50 [10] [µM] | TGI [10] [µM]
1 | COc1ccc(Nc2cc(C)nc(N3CCN(c4ccnc5cc(Cl)ccc45)CC3)n2)cc1 | 2.71 | > 100 | 6.57 | > 100 | 1.04 | 5.59 | 2.83 | 8.11 | 2.31 | > 100 | 1.28 | 7.68 | 1.67 | 3.35 | 4.81 | > 100 | 2.47 | 13.4 | 2.24 | > 100
2 | CCN(CC)CCOc1ccc(C(=O)/C=C\c2ccc(Cl)cc2Cl)cc1 | 10.5 | 22.3 | 10.3 | 22 | 3.63 | 16.3 | 2.06 | 5.62 | 4.92 | 20.1 | 8.7 | 22.3 | 3.14 | 12.3 | 11.8 | 24.3 | 2.53 | 12.1 | 4.06 | 17.2
3 | CCc1nc(N)nc(N)c1-c1ccc(Cl)c(N=CN(C)C)c1 | – | > 100 | – | > 100 | – | > 100 | – | > 100 | – | > 100 | – | > 100 | – | > 100 | – | > 100 | – | > 100 | – | > 100
